Test results as given in US20080161340A1, “Tetrahydroquinilinones, tetrahydronaphthyridones and derivatives thereof” (priority 2006, published 2008).

Assays:
Assay type in all cases: cell-based
rCB2 = biological target: T1, rCB2 (Rattus norvegicus, UniProt Q9QZN9); experiment: cAMP assay, rCB2 in Table 7, agonist/inverse agonist; settings: intracellular cAMP; + agonist, − inverse agonist
T1 sequence (Q9QZN9 1-360): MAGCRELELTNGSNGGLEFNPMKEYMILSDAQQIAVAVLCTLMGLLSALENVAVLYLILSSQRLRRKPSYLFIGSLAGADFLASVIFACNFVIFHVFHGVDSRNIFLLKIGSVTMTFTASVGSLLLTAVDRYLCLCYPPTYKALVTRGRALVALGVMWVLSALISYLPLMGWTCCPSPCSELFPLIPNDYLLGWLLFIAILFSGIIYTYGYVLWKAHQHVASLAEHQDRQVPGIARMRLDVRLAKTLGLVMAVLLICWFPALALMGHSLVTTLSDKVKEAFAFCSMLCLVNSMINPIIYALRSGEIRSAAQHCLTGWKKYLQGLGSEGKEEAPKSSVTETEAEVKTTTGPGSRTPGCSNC
Procedure: (§1) Receptor mediated responses were determined by measuring changes in intracellular cAMP using LANCE cAMP detection kit (cat #AD0264, PerkinElmer, Wellesley, Mass.) based on time-resolved fluorescence resonance energy transfer (TR-FRET). Changes in cAMP were determined in cells pre-incubated with IBMX (isobutyl methylxanthine) and prestimulated with NKH-477 (a water soluble forskolin derivative, cat #1603, Tocris, Ellisville, Mo.) to increase basal cAMP levels as detailed below.
(§2) On the day of the experiment, cells were spun at low speed for 5 min at room temperature. The supernatant was removed and cells were resuspended in stimulation buffer (Hanks Buffered Salt Solution/5 mM HEPES, containing 0.5 mM IBMX (cat #17018, Sigma) and 0.02% BSA (PerkinElmer, cat #CR84-100)). Cell clumps were removed by filtering through cell strainer 40 μm (BD Falcon, Discovery Labware, Bedford, Mass.) and diluted to 2×10^5 cells/mL. Antibody supplied with the LANCE cAMP immunoassay kit was then added according to the manufacturer's instructions. An aliquot of cells was taken for un-induced controls. To the remaining cells was added NKH-477 (a water soluble forskolin derivative, Tocris cat #1603) to a final concentration of 2-8 μM. Cells were then incubated for 30 min at room temperature prior to adding to Proxiplates containing test compounds (final DMSO concentration was less than 0.5%) with a Multidrop bulk dispenser, followed by a sixty minute incubation at room temperature. The response was stopped by addition of the detection mix supplied with the LANCE kit.
(§3) The reagents were allowed to equilibrate for three hours prior to reading on an Envision multi-mode detector (PerkinElmer). TR-FRET was measured using a 330-380 nm excitation filter, a 665 nm emission filter, dichroic mirror 380 nm and Z=1 mm.
(§4) Cyclic AMP concentrations in each well were back-calculated from a cAMP standard curve run concurrently during each assay. Each plate contained 16 wells of forskolin stimulated cells and 16 wells of forskolin plus CP55,940-treated. CP55,940-treated cells were treated with CP55,940 (Tocris cat. # 0949) at 1 μm and the maximal response was used as the full range (100%) standard. WIN55,212 (Tocris cat. # 1038) was used as an internal standard. Concentrations of cAMP were expressed as a percent of the difference of these two groups of wells. Concentration-response data including ECso (the concentration of compound producing 50% of the maximal response) and intrinsic activity (the percent maximal activation compared to full activation by CP55,940) were determined using a four-parameter non-linear regression algorithm (Xlfit equation 251, IDBS).

hCB2 = biological target: T2, hCB2 (Homo sapiens, UniProt P34972); experiment: cAMP assay (LANCE TR-FRET) in CHO-K1 cells stably expressing hCB2, agonist/inverse agonist; settings: intracellular cAMP, CHO-K1 hCB2 cells prestimulated with NKH-477; + agonist, − inverse agonist
T2 construct: host or cells: CHO-K1
Procedure: (§5) The ability of compounds to act as agonists or inverse agonists at human CB2 and CB1 receptors (hCB2, hCB1, respectively) was determined by measuring changes in intracellular cAMP levels. Chinese Hamster Ovary (CHO-K1) cell lines stably expressing hCB2 (Genebank: X74328) or hCB1 (Genebank: X54937) were purchased from Euroscreen (Gosselies, Belgium).
(§6) Cell lines were grown in suspension in EX-CELL 302 CHO Serum-free medium (Sigma, cat #14324C) supplemented with 1% Fetal Bovine Serum, glutamine and non-essential amino-acids under 0.4 mg/mL G418 selection.
as §1, §2, §3, §4

hCB1 = biological target: T3, hCB1 (Homo sapiens, UniProt P21554); experiment: cAMP assay (LANCE TR-FRET) in CHO-K1 cells stably expressing hCB1, agonist/inverse agonist; settings: intracellular cAMP, CHO-K1 hCB1 cells prestimulated with NKH-477, + agonist, − inverse agonist; for EC50: read-out: hCB1 EC50 class
T3 construct: host or cells: CHO-K1
Procedure: as §5, §6, §1, §2, §3, §4

T2 sequence (P34972 whole entry): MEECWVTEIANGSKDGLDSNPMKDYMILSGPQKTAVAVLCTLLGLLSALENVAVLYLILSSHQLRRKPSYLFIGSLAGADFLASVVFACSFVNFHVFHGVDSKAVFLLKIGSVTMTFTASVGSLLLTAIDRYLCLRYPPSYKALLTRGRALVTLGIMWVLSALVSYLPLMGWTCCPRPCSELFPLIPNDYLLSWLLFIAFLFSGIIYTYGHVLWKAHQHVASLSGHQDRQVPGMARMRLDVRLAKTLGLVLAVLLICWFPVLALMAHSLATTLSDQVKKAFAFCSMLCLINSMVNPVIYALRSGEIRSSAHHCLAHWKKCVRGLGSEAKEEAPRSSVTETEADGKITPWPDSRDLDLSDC
T3 sequence (P21554 whole entry): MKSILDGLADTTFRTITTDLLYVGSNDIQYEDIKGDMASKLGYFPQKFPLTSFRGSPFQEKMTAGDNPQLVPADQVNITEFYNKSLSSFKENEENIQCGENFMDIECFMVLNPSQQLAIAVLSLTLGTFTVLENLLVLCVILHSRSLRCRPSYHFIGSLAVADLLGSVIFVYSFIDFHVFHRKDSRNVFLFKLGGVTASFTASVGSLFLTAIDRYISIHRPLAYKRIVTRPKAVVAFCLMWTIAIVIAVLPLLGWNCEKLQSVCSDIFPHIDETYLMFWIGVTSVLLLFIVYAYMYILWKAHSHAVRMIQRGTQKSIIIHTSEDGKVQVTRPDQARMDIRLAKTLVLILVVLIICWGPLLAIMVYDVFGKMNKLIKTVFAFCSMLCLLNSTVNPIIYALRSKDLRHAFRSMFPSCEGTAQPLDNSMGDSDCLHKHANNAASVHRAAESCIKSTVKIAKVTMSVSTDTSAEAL

Row | SMILES | rCB2 EC50 class (rCB2) | hCB2 EC50 class (hCB2) | EC50 (hCB1) [µM] | hCB1 EC50 class (hCB1)
1 | COc1cccc(-c2cc3c(n(CC4CCC4)c2=O)CCCC3)c1 [Compound 16, 1-(cyclobutylmethyl)-3-(3-methoxyphenyl)-5,6,7,8-tetrahydroquinolin-2(1H)-one] | +B | +B | > 10 | –
2 | O=c1c(-c2ccccc2Cl)cc2c(n1CC1CCC1)CCCC2 [Compound 18, 3-(2-chlorophenyl)-1-(cyclobutylmethyl)-5,6,7,8-tetrahydroquinolin-2(1H)-one] | +B | +B | > 10 | –
3 | O=c1c(-c2ccc(Cl)cc2)cc2c(n1CC1CCC1)CCCC2 [Compound 19, 3-(4-chlorophenyl)-1-(cyclobutylmethyl)-5,6,7,8-tetrahydroquinolin-2(1H)-one] | +B | +B | > 10 | –
4 | O=c1c(-c2ccccc2C(F)(F)F)cc2c(n1CC1CCC1)CCCC2 [Compound 20, 1-(cyclobutylmethyl)-3-(2-(trifluoromethyl)phenyl)-5,6,7,8-tetrahydroquinolin-2(1H)-one] | +B | +B | > 10 | –
5 | O=c1c(-c2cccc(Cl)c2)cc2c(n1CC1CC1)CCCC2 [Compound 22, 3-(3-chlorophenyl)-1-(cyclopropylmethyl)-5,6,7,8-tetrahydroquinolin-2(1H)-one] | −B | +B | > 10 | –
6 | O=c1c(-c2ccc(C(F)(F)F)cc2)cc2c(n1CC1CCCCC1)CCCC2 [Compound 23, 1-(cyclohexylmethyl)-3-(4-(trifluoromethyl)phenyl)-5,6,7,8-tetrahydroquinolin-2(1H)-one] | −B | +B | – | +B
7 | O=c1c(-c2cccc(Cl)c2)cc2c(n1CC1CCCCC1)CCCC2 [Compound 25, 3-(3-chlorophenyl)-1-(cyclohexylmethyl)-5,6,7,8-tetrahydroquinolm-2(1H)-one] | +A | +B | – | +B
8 | Cn1cc(-c2cc3c(n(CC4CCC4)c2=O)CCCC3)cn1 [Compound 26, 1-(cyclobutylmethyl)-3-(1-methyl-1H-pyrazol-4-yl)-5,6,7,8-tetrahydroquinolin-2(1H)-one] | +A | +B | > 10 | –
9 | COc1ncc(-c2cc3c(n(CC4CCC4)c2=O)CCCC3)c(OC)n1 [Compound 29, 1-(cyclobutylmethyl)-3-(2,4-dimethoxypyrimidin-5-yl)-5,6,7,8-tetrahydroquinolin-2(1H)-one] | +A | +B | > 10 | –
10 | Cc1ccccc1Cc1cc2c(n(CC3CCC3)c1=O)CCCC2 [Compound 30, 1-(cyclobutylmethyl)-3-(2-methylbenzyl)-5,6,7,8-tetrahydroquinolin-2(1H)-one] | +A | +A | > 10 | –
11 | O=c1c(Cc2ccccc2F)cc2c(n1CC1CCC1)CCCC2 [Compound 31, 1-(cyclobutylmethyl)-3-(2-fluorobenzyl)-5,6,7,8-tetrahydroquinolin-2(1H)-one] | +A | +A | > 10 | –
12 | O=c1c(Cc2ccncc2)cc2c(n1CC1CCC1)CCCC2 [Compound 32, 1-(cyclobutylmethyl)-3-(pyridin-4-ylmethyl)-5,6,7,8-tetrahydroquinolin-2(1H)-one] | +B | +B | > 10 | –
13 | O=c1c(Cc2ccc(F)cc2)cc2c(n1CC1CCC1)CCCC2 [Compound 33, 1-(cyclobutylmethyl)-3-(4-fluorobenzyl)-5,6,7,8-tetrahydroquinolin-2(1H)-one] | +B | +B | > 10 | –
14 | O=c1c(Cc2ccccc2)cc2c(n1CC1CCC1)CCCC2 [Compound 34, 3-benzyl-1-(cyclobutylmethyl)-5,6,7,8-tetrahydroquinolin-2(1H)-one] | +B | +B | > 10 | –
15 | O=c1c(-c2ccc(C(F)(F)F)cc2)cc2c(n1CC1CCC1)CCNC2 [Compound 39, 3-(4-(trifluoromethyl)phenyl)-1-(cyclobutylmethyl)-5,6,7,8-tetrahydro-1,6-naphthyridin-2(1H)-one] | +C | +C | > 10 | –
16 | O=c1c(-c2cccnc2)cc2c(n1CC1CCC1)CCNC2 [Compound 40, 1-(cyclobutylmethyl)-3-(pyridin-3-yl)-5,6,7,8-tetrahydro-1,6-naphthyridin-2(1H)-one] | +B | +C | > 10 | –
17 | CS(=O)(=O)N1CCc2c(cc(-c3cccc(Cl)c3)c(=O)n2CC2CCC2)C1 [Compound 41, 3-(3-chlorophenyl)-1-(cyclobutylmethyl)-6-(methylsulfonyl)-5,6,7,8-tetrahydro-1,6-naphthyridin-2(1H)-one] | +A | +A | > 10 | –
18 | CC(=O)N1CCc2c(cc(-c3cccc(Cl)c3)c(=O)n2CC2CCC2)C1 [Compound 42, 6-acetyl-3-(3-chlorophenyl)-1-(cyclobutylmethyl)-5,6,7,8-tetrahydro-1,6-naphthyridin-2(1H)-one] | +A | +A | – | +C
19 | CS(=O)(=O)N1CCc2c(cc(-c3ccc(C(F)(F)F)cc3)c(=O)n2CC2CCC2)C1 [Compound 43, 1-(cyclobutylmethyl)-6-(methylsulfonyl)-3-(4-(trifluoromethyl)phenyl)-5,6,7,8-tetrahydro-1,6-naphthyridin-2(1H)-one] | +B | +A | > 10 | –
20 | CC(=O)N1CCc2c(cc(-c3ccc(C(F)(F)F)cc3)c(=O)n2CC2CCC2)C1 [Compound 44, 6-acetyl-1-(cyclobutylmethyl)-3-(4-(trifluoromethyl)phenyl)-5,6,7,8-tetrahydro-1,6-naphthyridin-2(1H)-one] | +B | +B | > 10 | –
21 | CC(=O)N1CCc2c(cc(-c3cccnc3)c(=O)n2CC2CCC2)C1 [Compound 46, 6-acetyl-1-(cyclobutylmethyl)-3-(pyridin-3-yl)-5,6,7,8-tetrahydro-1,6-naphthyridin-2(1H)-one] | +B | +B | > 10 | –
22 | CS(=O)(=O)N1CCc2c(cc(-c3cccc(Cl)c3)c(=O)n2CC2CC2)C1 [Compound 48, 3-(3-chlorophenyl)-1-(cyclopropylmethyl)-6-(methylsulfonyl)-5,6,7,8-tetrahydro-1,6-naphthyridin-2(1H)-one] | +A | +A | > 10 | –
23 | CCS(=O)(=O)N1CCc2c(cc(-c3cccc(Cl)c3)c(=O)n2CC2CC2)C1 [Compound 49, 3-(3-chlorophenyl)-1-(cyclopropylmethyl)-6-(ethylsulfonyl)-5,6,7,8-tetrahydro-1,6-naphthyridin-2(1H)-one] | +B | +B | > 10 | –
